Assay results from US9216985B2, “3-aryl-2-((arylamino)methyl)quinazolin-4-(3H)-ones” (SciFluor Life Sciences, Inc., priority 2013, dated 2015).

Experiments:
PI3Kγ = PI3Kγ (Homo sapiens (Human), UniProt P48736); experiment: Homogeneous Time Resolved Fluorescence (HTRF) lipid kinase assay; type: biochemical; conditions: HTRF format, 10 μM ATP
Experimental: (§1) The ability of the compounds of the present invention to inhibit the activity of four PI3K isoforms, PI3Kα, PI3Kβ, PI3Kγ, and PI3Kδ, were determined using a commercially available lipid kinase assay run in Homogeneous Time Resolved Fluorescence (HTRF) format.
(§2) Assay principle: The PIP3 product is detected by displacement of biotin-PIP3 from an energy transfer complex consisting of Europium labeled anti-GST monoclonal antibody, a GST-tagged pleckstrin homology (PH) domain, biotinylated PIP3 and Streptavidin-Allophycocyanin (APC). Excitation of Europium in the complex results in an energy transfer to the APC and a fluorescent emission at 665 nm. The PIP3 product formed by PI 3-Kinase(h) activity displaces biotin-PIP3 from the complex resulting in a loss of energy transfer and thus a decrease in signal.
(§3) This is a 3-step reaction: First, the kinase reaction with PIP2 substrate is carried out in the presence of ATP, and the reaction is quenched with stop Solution, and then finally detect by adding Detection Mixture followed by incubation.
(§4) Assay Buffer: HEPES 50 mM (pH7.0), NaN3 0.02%, BSA 0.01%, Orthovanadate 0.1 mM, 1% DMSO.
(§5) Detection buffer: HEPES 10 mM (pH7.0), BSA 0.02%, KF 0.16 M, EDTA 4 mM.
(§6) Substrate: […] PIP2 substrate (PI(4,5)P2)
(§7) ATP: 10 μM ATP under standard conditions
(§8) Control Inhibitor: PI-103
(§9) • 1. Prepare substrate in freshly prepared Reaction Buffer • 2. Deliver kinase into the substrate solution and gently mix • 3. Deliver compounds in 100% DMSO into the kinase reaction mixture by Acoustic technology (Echo550; nanolitter range), incubate for 10 min at room temp • 4. Deliver ATP into the reaction mixture to initiate the reaction • 5. Incubate for 30 min at 30° C. • 6. Quench the reaction with Stop Solution. • 7. Add Detection Mixture, and incubate for overnight. • 8. Measure HTRF: Ex=320 nm, ratio of Em=615 nm and Em=665 nm. Data Analysis:
(§10) The emission ratio is converted into μM PIP3 production based on PIP3 standard curves. The nonlinear regression to obtain the standard curve and IC50 values are performed using Graphpad Prism software.

PI3Kδ = PI3Kδ (Homo sapiens (Human), UniProt O00329); experiment: as above; type: biochemical; conditions: HTRF format, 10 μM ATP
Sequence of PI3Kδ (O00329 whole entry): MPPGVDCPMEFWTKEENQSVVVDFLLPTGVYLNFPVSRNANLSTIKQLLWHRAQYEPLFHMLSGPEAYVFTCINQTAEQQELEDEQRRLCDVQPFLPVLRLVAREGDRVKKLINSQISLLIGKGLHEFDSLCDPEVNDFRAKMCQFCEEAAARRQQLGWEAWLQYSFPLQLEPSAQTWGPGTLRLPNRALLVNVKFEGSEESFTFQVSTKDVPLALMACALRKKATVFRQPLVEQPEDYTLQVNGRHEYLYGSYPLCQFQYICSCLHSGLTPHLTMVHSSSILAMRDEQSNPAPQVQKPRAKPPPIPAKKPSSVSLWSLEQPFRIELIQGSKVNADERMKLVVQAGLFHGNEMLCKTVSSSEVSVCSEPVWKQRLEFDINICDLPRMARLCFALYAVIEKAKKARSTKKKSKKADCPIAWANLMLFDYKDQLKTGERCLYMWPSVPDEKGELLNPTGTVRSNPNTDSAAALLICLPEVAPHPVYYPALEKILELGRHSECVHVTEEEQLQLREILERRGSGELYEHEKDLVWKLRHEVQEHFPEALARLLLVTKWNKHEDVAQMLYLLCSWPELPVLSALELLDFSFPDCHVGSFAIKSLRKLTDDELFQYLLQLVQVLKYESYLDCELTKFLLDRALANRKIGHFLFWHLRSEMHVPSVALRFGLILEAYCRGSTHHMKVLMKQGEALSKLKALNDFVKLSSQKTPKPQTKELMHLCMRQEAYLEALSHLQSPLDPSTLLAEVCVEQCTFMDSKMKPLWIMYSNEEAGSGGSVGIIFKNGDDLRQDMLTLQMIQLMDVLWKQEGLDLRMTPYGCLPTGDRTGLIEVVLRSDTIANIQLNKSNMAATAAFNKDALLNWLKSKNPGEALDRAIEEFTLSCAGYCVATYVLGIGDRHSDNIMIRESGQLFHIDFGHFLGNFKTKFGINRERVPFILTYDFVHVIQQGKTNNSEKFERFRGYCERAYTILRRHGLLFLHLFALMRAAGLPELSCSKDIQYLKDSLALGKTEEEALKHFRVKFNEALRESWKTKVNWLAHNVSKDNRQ
Sequence of PI3Kδ (P27986 whole entry partner): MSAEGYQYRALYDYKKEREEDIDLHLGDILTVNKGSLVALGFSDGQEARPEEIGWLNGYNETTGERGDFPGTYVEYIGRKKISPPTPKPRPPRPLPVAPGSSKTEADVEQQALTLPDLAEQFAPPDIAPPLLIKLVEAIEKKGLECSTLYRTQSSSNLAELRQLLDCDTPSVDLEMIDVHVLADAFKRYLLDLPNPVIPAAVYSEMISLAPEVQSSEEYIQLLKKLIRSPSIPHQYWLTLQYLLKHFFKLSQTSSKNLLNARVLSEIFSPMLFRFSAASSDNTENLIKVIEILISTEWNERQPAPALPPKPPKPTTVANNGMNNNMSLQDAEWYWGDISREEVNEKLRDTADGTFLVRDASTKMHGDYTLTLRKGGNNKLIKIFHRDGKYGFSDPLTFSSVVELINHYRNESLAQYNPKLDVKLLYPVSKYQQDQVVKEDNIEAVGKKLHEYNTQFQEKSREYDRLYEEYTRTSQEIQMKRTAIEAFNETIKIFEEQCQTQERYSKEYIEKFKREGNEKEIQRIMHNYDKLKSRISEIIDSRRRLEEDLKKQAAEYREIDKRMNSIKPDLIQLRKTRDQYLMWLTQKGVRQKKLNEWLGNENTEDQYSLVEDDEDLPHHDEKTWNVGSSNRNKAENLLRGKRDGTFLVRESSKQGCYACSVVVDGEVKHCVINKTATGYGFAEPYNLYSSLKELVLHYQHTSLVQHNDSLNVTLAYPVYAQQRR
Experimental: as §1, §2, §3, §4, §5, §6, §7, §8, §9, §10

PI3Kα = PI3Kα (Homo sapiens (Human), UniProt P42336); experiment: as above; type: biochemical; conditions: HTRF format, 10 μM ATP
Sequence of PI3Kα (P42336 whole entry): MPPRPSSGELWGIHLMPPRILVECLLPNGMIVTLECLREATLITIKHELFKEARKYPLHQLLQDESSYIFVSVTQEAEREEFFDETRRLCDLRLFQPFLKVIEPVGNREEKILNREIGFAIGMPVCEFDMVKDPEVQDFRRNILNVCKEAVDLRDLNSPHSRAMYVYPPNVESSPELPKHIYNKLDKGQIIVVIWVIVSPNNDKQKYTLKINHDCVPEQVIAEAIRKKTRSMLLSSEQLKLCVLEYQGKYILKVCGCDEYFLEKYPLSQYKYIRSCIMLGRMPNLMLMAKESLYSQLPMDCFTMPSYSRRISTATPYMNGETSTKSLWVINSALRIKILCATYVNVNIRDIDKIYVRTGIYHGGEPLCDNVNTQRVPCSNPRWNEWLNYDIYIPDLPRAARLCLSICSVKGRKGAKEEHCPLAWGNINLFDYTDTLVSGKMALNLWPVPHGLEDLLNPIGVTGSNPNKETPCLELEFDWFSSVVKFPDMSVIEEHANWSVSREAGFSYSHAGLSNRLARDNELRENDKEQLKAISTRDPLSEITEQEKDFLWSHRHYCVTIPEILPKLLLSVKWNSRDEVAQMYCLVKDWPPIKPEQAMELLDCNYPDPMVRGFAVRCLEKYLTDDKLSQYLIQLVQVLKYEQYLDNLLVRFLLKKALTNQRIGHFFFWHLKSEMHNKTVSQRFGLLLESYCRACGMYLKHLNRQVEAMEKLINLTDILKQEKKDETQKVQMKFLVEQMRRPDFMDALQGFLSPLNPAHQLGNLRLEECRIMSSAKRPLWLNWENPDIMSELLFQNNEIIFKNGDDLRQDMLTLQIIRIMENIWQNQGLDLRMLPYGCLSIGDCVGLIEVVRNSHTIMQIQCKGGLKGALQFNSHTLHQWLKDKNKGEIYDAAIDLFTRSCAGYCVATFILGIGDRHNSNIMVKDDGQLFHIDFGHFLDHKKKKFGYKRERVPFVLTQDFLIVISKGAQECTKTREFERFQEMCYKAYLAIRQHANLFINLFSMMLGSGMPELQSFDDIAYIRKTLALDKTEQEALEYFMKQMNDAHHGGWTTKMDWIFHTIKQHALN
Sequence of PI3Kα (P27986 whole entry partner): as the sequence (P27986 whole entry partner) above
Experimental: as §1, §2, §3, §4, §5, §6, §7, §8, §9, §10

PI3Kβ = PI3Kβ (Homo sapiens (Human), UniProt P42338); experiment: as above; type: biochemical; conditions: HTRF format, 10 μM ATP
Sequence of PI3Kβ (P42338 whole entry): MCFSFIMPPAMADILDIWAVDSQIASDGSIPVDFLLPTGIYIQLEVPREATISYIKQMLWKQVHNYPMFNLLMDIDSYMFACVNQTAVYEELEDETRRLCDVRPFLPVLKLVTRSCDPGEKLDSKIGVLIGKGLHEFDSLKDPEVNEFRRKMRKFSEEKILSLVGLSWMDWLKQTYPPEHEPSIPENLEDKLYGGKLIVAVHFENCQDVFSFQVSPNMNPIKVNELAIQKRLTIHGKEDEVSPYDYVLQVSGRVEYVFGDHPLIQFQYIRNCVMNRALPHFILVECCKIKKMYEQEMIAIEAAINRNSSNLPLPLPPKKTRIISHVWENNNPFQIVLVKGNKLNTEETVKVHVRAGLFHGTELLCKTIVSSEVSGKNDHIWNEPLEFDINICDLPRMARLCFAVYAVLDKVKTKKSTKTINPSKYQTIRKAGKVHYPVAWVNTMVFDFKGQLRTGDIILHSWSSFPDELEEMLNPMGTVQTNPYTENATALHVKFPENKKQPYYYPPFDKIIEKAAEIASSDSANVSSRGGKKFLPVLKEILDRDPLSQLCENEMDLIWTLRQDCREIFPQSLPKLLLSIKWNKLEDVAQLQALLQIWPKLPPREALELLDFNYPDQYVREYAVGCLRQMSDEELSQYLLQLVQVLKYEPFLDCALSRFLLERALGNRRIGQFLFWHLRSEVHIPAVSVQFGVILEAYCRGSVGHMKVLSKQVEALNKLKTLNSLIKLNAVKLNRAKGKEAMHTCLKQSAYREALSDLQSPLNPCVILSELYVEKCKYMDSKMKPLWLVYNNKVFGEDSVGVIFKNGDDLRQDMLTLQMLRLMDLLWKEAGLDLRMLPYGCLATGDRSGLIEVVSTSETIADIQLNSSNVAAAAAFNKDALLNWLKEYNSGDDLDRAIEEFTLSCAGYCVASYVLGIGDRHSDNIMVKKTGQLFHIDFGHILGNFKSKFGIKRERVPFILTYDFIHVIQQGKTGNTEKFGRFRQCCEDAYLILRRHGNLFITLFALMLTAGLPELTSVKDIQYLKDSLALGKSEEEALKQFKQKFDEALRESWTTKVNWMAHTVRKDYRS
Sequence of PI3Kβ (P27986 whole entry partner): as the sequence (P27986 whole entry partner) above
Experimental: as §1, §2, §3, §4, §5, §6, §7, §8, §9, §10

PI3Kα human fl = PI3Kα human fl (Homo sapiens (Human), UniProt P42336); experiment: Reporter displacement assay; type: binding
Experimental: (§11) The ability of the compounds of the present invention to inhibit the activity of four PI3K isoforms, PI3Kα, PI3Kβ, PI3Kγ, and PI3Kδ, were determined using the commercially available reporter displacement assay that is based on reporter probes that are designed to bind to the site of interest of the target protein. The proximity between reporter and protein results in the emission of an optical signal. Compounds that bind to the same site as the reporter probe displace the probe, causing signal diminution. Reporter displacement is measured over time after addition of compounds at various concentrations. The assay conditions were:
(§12) Assay plates: 384 well U bottom, PP, black, low volume (Corning, 3676)
(§13) Full probe displacement: absence of enzyme and compound
(§14) Full probe binding: absence of compound
(§15) Reaction buffer: 20 mM Mops, pH 7.01 mM DTT, 0.01% Tween 20

PI3Kδ human fl = PI3Kδ human fl (Homo sapiens (Human), UniProt O00329); experiment: Reporter displacement assay; type: binding
Experimental: as §11, §12, §13, §14, §15

PI3Kγ human (144-1102) = PI3Kγ human (144-1102) (Homo sapiens (Human), UniProt P48736); experiment: Reporter displacement assay; type: binding
Experimental: as §11, §12, §13, §14, §15

PI3Kβ human (1-1070) = PI3Kβ human (1-1070) (Homo sapiens (Human), UniProt P42338); experiment: Reporter displacement assay; type: binding
Experimental: as §11, §12, §13, §14, §15

Sequence of PI3Kγ (P48736 whole entry, canonical isoform): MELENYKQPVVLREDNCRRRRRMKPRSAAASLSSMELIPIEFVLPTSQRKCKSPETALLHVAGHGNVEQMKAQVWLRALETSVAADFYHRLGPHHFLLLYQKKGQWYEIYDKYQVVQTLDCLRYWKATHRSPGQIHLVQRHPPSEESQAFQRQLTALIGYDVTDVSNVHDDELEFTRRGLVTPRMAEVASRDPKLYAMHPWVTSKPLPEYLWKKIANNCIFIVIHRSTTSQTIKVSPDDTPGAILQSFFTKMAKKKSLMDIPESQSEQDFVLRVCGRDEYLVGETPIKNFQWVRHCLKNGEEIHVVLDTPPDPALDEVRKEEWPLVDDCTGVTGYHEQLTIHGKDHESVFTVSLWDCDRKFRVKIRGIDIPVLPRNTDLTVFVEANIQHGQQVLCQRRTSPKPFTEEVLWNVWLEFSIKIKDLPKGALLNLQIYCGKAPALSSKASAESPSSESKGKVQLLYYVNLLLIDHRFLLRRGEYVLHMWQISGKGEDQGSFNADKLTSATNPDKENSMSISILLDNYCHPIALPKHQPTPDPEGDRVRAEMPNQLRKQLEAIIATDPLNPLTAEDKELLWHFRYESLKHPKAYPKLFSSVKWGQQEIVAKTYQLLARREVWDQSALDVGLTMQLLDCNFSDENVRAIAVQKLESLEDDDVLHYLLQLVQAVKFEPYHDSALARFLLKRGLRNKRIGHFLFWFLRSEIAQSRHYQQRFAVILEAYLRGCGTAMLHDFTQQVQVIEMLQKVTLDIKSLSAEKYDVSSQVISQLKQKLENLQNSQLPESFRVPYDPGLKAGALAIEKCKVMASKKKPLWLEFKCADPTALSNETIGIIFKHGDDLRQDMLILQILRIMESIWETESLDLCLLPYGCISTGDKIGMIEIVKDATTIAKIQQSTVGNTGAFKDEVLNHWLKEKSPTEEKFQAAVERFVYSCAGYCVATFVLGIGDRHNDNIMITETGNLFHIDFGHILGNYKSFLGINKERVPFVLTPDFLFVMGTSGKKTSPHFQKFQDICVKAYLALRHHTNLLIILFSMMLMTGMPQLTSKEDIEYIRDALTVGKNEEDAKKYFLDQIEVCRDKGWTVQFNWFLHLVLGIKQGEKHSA

| IC50 (PI3Kγ) [µM] | IC50 (PI3Kδ) [µM] | IC50 (PI3Kα) [µM] | IC50 (PI3Kβ) [µM] | IC50 (PI3Kα human fl) [µM] | IC50 (PI3Kδ human fl) [µM] | IC50 (PI3Kγ human (144-1102)) [µM] | IC50 (PI3Kβ human (1-1070)) [µM] | Structure (SMILES) |
| --- | --- | --- | --- | --- | --- | --- | --- | --- |
| 1.2 | 0.008 | 3.7 | 0.65 |  |  |  |  | CC[C@H](Nc1ncnc2[nH]ccc12)c1nc2cccc(F)c2c(=O)n1-c1ccccc1 [Compound 1A, (S)-2-(1-((7H-pyrrolo[2,3-d]pyrimidin-4-yl)amino)propyl)-5-fluoro-3-phenylquinazolin-4(3H)-one] |
| 1.8 | 0.08 |  | 3.9 |  |  |  |  | O=c1c2c(F)cccc2nc([C@H](CC(F)(F)F)Nc2ncnc3[nH]cnc23)n1-c1ccccc1 [Compound 2A, (S)-2-(1-((9H-purin-6-yl)amino)-3,3,3-trifluoropropyl)-5-fluoro-3-phenylquinazolin-4(3H)-one] |
| 0.3 | 0.02 | 15 | 3.1 |  |  |  |  | CC[C@H](Nc1ncnc2[nH]cnc12)c1nc2cccc(F)c2c(=O)n1-c1cccc(CC(F)(F)F)c1 [Compound 6A, (S)-2-(1-((9H-purin-6-yl)amino)propyl)-5-fluoro-3-(3-(2,2,2-trifluoroethyl)phenyl)quinazolin-4(3H)-one] |
| 1.3 | 0.05 | 28 | 5.8 |  |  |  |  | CC[C@H](Nc1ncnc2[nH]ccc12)c1nc2cccc(F)c2c(=O)n1-c1cccc(CC(F)(F)F)c1 [Compound 7A, (S)-2-(1-((7H-pyrrolo[2,3-d]pyrimidin-4-yl)amino)propyl)-5-fluoro-3-(3-(2,2,2-trifluoroethyl)phenyl)quinazolin-4(3H)-one] |
| 0.74 | 0.02 |  |  |  |  |  |  | CC[C@H](Nc1ncnc2[nH]cnc12)c1nc2cccc(F)c2c(=O)n1-c1cccc(OCC(F)(F)F)c1 [Compound 10A, (S)-2-(1-((9H-purin-6-yl)amino)propyl)-5-fluoro-3-(3-(2,2,2-trifluoroethoxy)phenyl)quinazolin-4(3H)-one] |
| 3 | 0.11 | 115 |  |  |  |  |  | CC[C@H](Nc1ncnc2[nH]ccc12)c1nc2cccc(F)c2c(=O)n1-c1cccc(OCC(F)(F)F)c1 [Compound 11A, (S)-2-(1-((7H-pyrrolo[2,3-d]pyrimidin-4-yl)amino)propyl)-5-fluoro-3-(3-(2,2,2-trifluoroethoxy)phenyl)quinazolin-4(3H)-one] |
| 0.74 | 0.009 | 9.7 | 7.3 |  |  |  |  | C[C@H](Nc1ncnc2[nH]ccc12)c1nc2cccc(F)c2c(=O)n1-c1ccc(OCC(F)(F)F)cc1 [Compound 15A, (S)-2-(1-((7H-pyrrolo[2,3-d]pyrimidin-4-yl)amino)ethyl)-5-fluoro-3-(4-(2,2,2-trifluoroethoxy)phenyl)quinazolin-4(3H)-one] |
| 5.4 | 0.09 |  | 10.5 |  |  |  |  | CC[C@H](Nc1ncnc2[nH]ccc12)c1nc2cccc(F)c2c(=O)n1-c1ccc(OCC(F)(F)F)cc1 [Compound 16A, (S)-2-(1-((7H-pyrrolo[2,3-d]pyrimidin-4-yl)amino)propyl)-5-fluoro-3-(4-(2,2,2-trifluoroethoxy)phenyl)quinazolin-4(3H)-one] |
| 1.2 | 0.008 | 10 | 3.4 |  |  |  |  | C[C@H](Nc1ncnc2[nH]cc(F)c12)c1nc2cccc(F)c2c(=O)n1-c1cccc(OCC(F)(F)F)c1 [Compound 17A, (S)-5-fluoro-2-(1-((5-fluoro-7H-pyrrolo[2,3-d]pyrimidin-4-yl)amino)ethyl)-3-(3-(2,2,2-trifluoroethoxy)phenyl)quinazolin-4(3H)-one] |
| 4.5 | 0.19 | > 10 | > 10 |  |  |  |  | C[C@H](Nc1ncnc2[nH]ccc12)c1nc2cccc(F)c2c(=O)n1-c1cccc(OCC(F)(F)C(F)(F)F)c1 [Compound 19A, (S)-2-(1-((7H-pyrrolo[2,3-d]pyrimidin-4-yl)amino)ethyl)-5-fluoro-3-(3-(2,2,3,3,3-pentafluoropropoxy)phenyl)quinazolin-4(3H)-one] |
| 0.46 | 0.01 | 4.1 | 1.1 |  |  |  |  | C[C@H](Nc1ncnc2[nH]ccc12)c1nc2cccc(Cl)c2c(=O)n1-c1cccc(OCC(F)(F)F)c1 [Compound 20A, (S)-2-(1-((7H-pyrrolo[2,3-d]pyrimidin-4-yl)amino)ethyl)-5-chloro-3-(3-(2,2,2-trifluoroethoxy)phenyl)quinazolin-4(3H)-one] |
|  | 2.1 |  | > 10 |  |  |  |  | O=c1c2c(F)cccc2nc(CNc2ncnc3[nH]ccc23)n1-c1cccc(OCC(F)(F)F)c1 [Compound 21A, 2-(((7H-pyrrolo[2,3-d]pyrimidin-4-yl)amino)methyl)-5-fluoro-3-(3-(2,2,2-trifluoroethoxy)phenyl)quinazolin-4(3H)-one] |
|  |  |  |  | 9.8 | 0.02 | 1.2 | 2.1 | C[C@H](Nc1ncnc2[nH]ccc12)c1nc2cccc(F)c2c(=O)n1-c1cccc(OCC(F)F)c1 [Compound 22A, (S)-2-(1-((7H-pyrrolo[2,3-d]pyrimidin-4-yl)amino)ethyl)-3-(3-(2,2-difluoroethoxy)phenyl)-5-fluoroquinazolin-4(3H)-one] |
